Assay results: ChEMBL document CHEMBL5108020, “Design and synthesis of novel benzimidazole derivatives as potential Pseudomonas aeruginosa anti-biofilm agents inhibiting LasR: Evidence from comprehensive molecular dynamics simulation and in vitro investigation” (Eur J Med Chem, 2022)

Columns and labels:
[1] = target: T1, Transcriptional activator protein LasR (Pseudomonas aeruginosa (strain ATCC 15692 / PAO1 / 1C / PRS 101 / LMG12228), UniProt P25084); experiment: Inhibition of Pseudomonas aeruginosa PAO1 LasR co-transfected with LVAgfp reporter assessed as inhibition of GFP production measured after 12 to 24 hrs by fluorescence based analysis
T1 sequence (P25084 whole entry): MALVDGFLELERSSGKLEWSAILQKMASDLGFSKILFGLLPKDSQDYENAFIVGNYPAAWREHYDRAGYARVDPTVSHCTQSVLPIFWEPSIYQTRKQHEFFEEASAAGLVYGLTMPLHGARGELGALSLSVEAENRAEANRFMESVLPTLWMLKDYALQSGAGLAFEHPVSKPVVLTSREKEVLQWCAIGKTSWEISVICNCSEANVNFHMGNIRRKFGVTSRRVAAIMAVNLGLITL

[2] = target: T2, HTH-type quorum-sensing regulator RhlR (Pseudomonas aeruginosa (strain ATCC 15692 / PAO1 / 1C / PRS 101 / LMG12228), UniProt P54292); experiment: Inhibition of Pseudomonas aeruginosa PAO1 RhlR co-transfected with LVAgfp reporter assessed as inhibition of GFP production measured after 12 to 24 hrs by fluorescence based analysis
T2 sequence (P54292 whole entry): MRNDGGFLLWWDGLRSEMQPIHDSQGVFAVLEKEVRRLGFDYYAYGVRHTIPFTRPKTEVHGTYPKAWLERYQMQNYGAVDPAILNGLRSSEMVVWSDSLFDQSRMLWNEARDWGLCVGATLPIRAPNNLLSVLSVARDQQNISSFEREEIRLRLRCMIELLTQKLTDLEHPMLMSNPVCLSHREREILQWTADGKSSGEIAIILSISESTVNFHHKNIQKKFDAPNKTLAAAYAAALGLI

[3] = target: T1, Transcriptional activator protein LasR; experiment: Inhibition of Pseudomonas aeruginosa PAO-JP2 LasR co-transfected with LVAgfp reporter assessed as inhibition of GFP production by fluorescence based analysis
[4] = target: T1, Transcriptional activator protein LasR; experiment: Inhibition of Pseudomonas aeruginosa PAO-JG21 LasR co-transfected with LVAgfp reporter assessed as inhibition of GFP production by fluorescence based analysis
[5] = target: T1, Transcriptional activator protein LasR; experiment: Inhibition of Pseudomonas aeruginosa PAO1 LasR
[6] = target: T2, HTH-type quorum-sensing regulator RhlR; experiment: Inhibition of Pseudomonas aeruginosa PAO1 RhlR
[7] = target: T3, Transcriptional activator protein LasR (Pseudomonas aeruginosa (strain ATCC 15692 / PAO1 / 1C / PRS 101 / LMG12228)) (UniProt P25084); experiment: Inhibition of Pseudomonas aeruginosa MH602 LasR co-transfected with ASVgfp reporter assessed as inhibition of GFP production at 250 uM by fluorescence based analysis
T3 sequence (whole entry): T1 sequence (P25084 whole entry)

[8] = target: T3, Transcriptional activator protein LasR (Pseudomonas aeruginosa (strain ATCC 15692 / PAO1 / 1C / PRS 101 / LMG12228)); experiment: Inhibition of Pseudomonas aeruginosa MH602 LasR co-transfected with ASVgfp reporter assessed as inhibition of GFP production at 125 uM by fluorescence based analysis
[9] = target: T3, Transcriptional activator protein LasR (Pseudomonas aeruginosa (strain ATCC 15692 / PAO1 / 1C / PRS 101 / LMG12228)); experiment: Inhibition of Pseudomonas aeruginosa MH602 LasR co-transfected with ASVgfp reporter assessed as inhibition of GFP production at 62.5 uM by fluorescence based analysis

`Cc1cc2nc(N)[nH]c2cc1C` was tested, and the IC50 [1] was 37.5 µM and the IC50 [2] was 12.5 µM.
Molecule `Nc1nc2ccccc2[nH]1` has an IC50 [3] of 2.3 µM, an IC50 [4] of 1.4 µM and an IC50 [5] of 399 µM. For the same molecule, the IC50 [6] was 285 µM.
`O=C(Cn1cc(-c2ccc([N+](=O)[O-])cc2)nn1)Nc1nc2ccccc2[nH]1` gave an inhibition [7] of 68.2%, an inhibition [8] of 67.1% and an inhibition [9] of 63.7%.
